Source: publication PMC4301037, “Identification and Structure–Function Analysis of Subfamily Selective G Protein-Coupled Receptor Kinase Inhibitors” (ACS Chemical Biology, 2014)
Read-outs that look alike come from different tables or passages of the source.

Legend:
bovine GRK5 = molecular target: T1, bovine GRK5 (Bos taurus, UniProt P43249); experiment: Primary DSF inhibitor screen, GRK5; assay type: binding
T1 construct: when using full-length kinases as the receptor[37] instead of isolated kinase domains; made in house

protein kinase A (PKA) = molecular target: T2, protein kinase A (PKA) (Mus musculus, UniProt P05132); experiment: DSF retest (confirmation), PKA; assay type: binding
T2 construct: His tag (inferred from pET15b vector and Ni-NTA column) (N); host or cells: E. coli Rosetta(DE3)pLysS
Method: Fourteen compounds (Figure 1a–c), including all GRK2 hits except staurosporine, and the most stabilizing pyrrolopyrimidine-containing compounds were obtained from GSK and retested using DSF on GRKs representing each vertebrate subfamily (GRK1, 2, and 5) (Table 1). […] The ability of these compounds to shift the Tm of the related AGC family kinase member protein kinase A (PKA) was also assessed (Table 1). In no case was ΔTm greater for PKA than for one of the tested GRKs. […]. There was no correlation for GRK1 (Figure 2c).
DSF was conducted using a ThermoFluor plate reader (Johnson & Johnson) in a buffer containing 20 mM HEPES, pH 7.0, 5 mM MgCl2, 2 mM DTT, and 1 mM CHAPS with 0.2 mg mL^–1 final concentration of GRK or PKA and 100 μM 1-anilinonaphthalene-8-sulfonic acid.[14]

GRK2 [1] = molecular target: T3, GRK2 (Homo sapiens, UniProt P25098, S670A); experiment: DSF retest (confirmation), GRK2; assay type: binding
T3 construct: made in house
T3 sequence (P25098 1-689 S670A): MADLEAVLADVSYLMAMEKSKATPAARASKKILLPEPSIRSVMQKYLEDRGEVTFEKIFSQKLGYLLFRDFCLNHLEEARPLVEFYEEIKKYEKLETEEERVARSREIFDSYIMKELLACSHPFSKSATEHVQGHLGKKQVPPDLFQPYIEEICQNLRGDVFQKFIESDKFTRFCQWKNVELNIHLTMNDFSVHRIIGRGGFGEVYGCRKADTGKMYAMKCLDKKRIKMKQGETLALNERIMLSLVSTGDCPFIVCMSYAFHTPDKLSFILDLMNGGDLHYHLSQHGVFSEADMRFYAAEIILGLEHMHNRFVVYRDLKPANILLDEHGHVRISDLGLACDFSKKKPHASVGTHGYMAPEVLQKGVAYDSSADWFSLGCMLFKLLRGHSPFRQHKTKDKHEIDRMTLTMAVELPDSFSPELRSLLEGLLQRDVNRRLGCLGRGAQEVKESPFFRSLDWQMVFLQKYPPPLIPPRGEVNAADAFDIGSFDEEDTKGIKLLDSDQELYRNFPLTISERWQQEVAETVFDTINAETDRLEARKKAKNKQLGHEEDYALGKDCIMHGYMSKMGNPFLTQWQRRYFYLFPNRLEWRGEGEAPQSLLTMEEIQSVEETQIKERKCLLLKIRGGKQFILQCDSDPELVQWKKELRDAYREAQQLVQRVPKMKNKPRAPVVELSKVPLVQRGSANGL

GRK2 [2] = molecular target: T4, GRK2 (Bos taurus, UniProt P21146, S670A); experiment: In vitro phosphorylation assay (tubulin, 5 μM ATP), GRK2; assay type: biochemical, bovine; conditions: read-out: GRK2 log IC50 (converted)
T4 construct: made in house
T4 sequence (P21146 1-689 S670A): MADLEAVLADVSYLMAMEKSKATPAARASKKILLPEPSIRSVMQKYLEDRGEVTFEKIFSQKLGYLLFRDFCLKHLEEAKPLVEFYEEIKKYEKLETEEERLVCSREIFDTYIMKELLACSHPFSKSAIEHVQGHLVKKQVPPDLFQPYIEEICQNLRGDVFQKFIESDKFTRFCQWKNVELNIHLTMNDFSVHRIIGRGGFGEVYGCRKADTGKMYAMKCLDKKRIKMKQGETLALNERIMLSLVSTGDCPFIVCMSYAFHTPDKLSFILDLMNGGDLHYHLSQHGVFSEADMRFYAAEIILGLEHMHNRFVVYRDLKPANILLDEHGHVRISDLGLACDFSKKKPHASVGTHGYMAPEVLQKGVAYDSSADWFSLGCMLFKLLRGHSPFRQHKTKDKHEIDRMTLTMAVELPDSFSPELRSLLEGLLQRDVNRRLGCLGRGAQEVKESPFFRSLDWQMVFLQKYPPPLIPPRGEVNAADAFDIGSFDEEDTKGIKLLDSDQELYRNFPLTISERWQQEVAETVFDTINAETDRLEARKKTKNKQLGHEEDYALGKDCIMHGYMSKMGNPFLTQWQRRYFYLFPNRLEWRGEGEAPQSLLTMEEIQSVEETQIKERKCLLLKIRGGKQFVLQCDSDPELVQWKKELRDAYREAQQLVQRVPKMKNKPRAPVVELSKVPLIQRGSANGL

GRK5 [3] = molecular target: T5, GRK5 (Bos taurus, UniProt P43249); experiment: In vitro phosphorylation assay (tubulin, 5 μM ATP), GRK5; assay type: biochemical, bovine; conditions: read-out: GRK5 log IC50 (converted)
T5 construct: when using full-length kinases as the receptor[37] instead of isolated kinase domains; made in house

GRK5 [4] = molecular target: T5, GRK5; experiment: DSF retest (confirmation), GRK5; assay type: binding, bovine
PKA = molecular target: T6, PKA (Mus musculus, UniProt P05132); experiment: PKA inhibition assay (ADP-Glo, CREBtide, 100 μM ATP); assay type: biochemical; conditions: logarithm of IC50 (−3.3 corresponds to 0.5 mM, footnote c); 438 nM PKA, 100 μM ATP, CREBtide; read-out: PKA log IC50 (converted)
T6 construct: His tag (inferred from pET15b vector and Ni-NTA column) (N); host or cells: E. coli Rosetta(DE3)pLysS

human GRK2S670A = molecular target: T7, human GRK2S670A (Homo sapiens, UniProt P25098, S670A); experiment: Primary DSF (differential scanning fluorimetry) inhibitor screen, GRK2; assay type: binding
T7 construct: when using full-length kinases as the receptor[37] instead of isolated kinase domains; made in house
T7 sequence (P25098 1-689 S670A): T3 sequence (P25098 1-689 S670A)

[5] = 10 μM compound, 2 μM kinase, relative to DMSO control
[6] = 10 μM compound, 2 μM kinase, relative to DMSO control, read-out: ΔTm, primary screen, GRK5
[7] = relative to intrinsic melting point of the kinase

T5 sequence (P43249 whole entry, the tested form may be a part): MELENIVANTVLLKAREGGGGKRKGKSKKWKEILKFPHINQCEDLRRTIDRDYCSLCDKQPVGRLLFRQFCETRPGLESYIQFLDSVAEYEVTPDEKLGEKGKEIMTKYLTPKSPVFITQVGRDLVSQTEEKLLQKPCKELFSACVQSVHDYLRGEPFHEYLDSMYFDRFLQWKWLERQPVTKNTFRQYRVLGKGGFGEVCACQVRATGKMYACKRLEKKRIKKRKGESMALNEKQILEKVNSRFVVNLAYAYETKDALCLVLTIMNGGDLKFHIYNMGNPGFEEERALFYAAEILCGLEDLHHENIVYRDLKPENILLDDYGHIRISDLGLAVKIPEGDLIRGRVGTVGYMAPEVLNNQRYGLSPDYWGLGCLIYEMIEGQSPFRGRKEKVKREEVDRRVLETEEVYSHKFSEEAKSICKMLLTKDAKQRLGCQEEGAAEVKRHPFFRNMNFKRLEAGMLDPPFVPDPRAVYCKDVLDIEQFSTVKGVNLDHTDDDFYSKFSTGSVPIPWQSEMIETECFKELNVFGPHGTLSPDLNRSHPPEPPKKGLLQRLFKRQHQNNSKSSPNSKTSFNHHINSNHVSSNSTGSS
T1 sequence (P43249 whole entry, the tested form may be a part): as above

## CCCN1CCC(Oc2cc(Nc3nc(Nc4cccc(F)c4C(N)=O)c4cc[nH]c4n3)c(OC)cc2Cl)CC1 [GSK1713088A]
Bovine GRK5; [5]
  ΔTm, primary screen, GRK5: 7.4 °C
Bovine GRK5; [6]
  ΔTm at 10 µM: 7.37 °C
Bovine GRK5; rank ordering of compounds in primary DSF screen, 10 μM compound
  rank in the primary screen, GRK5: 11
Protein kinase A (PKA); 0.2 mg mL^–1 kinase
  PKA Tm: 45.8 °C
Protein kinase A (PKA); [7]
  PKA ΔTm: 0.4 °C
GRK2 [1]; 0.2 mg mL^–1 kinase
  GRK2 Tm: 44.2 °C
GRK2 [1]; [7]
  GRK2 ΔTm: 6.7 °C
GRK2 [2]
  IC50: 6.31 µM
GRK5 [3]
  IC50: 3.16 µM
GRK5 [4]; 0.2 mg mL^–1 kinase
  GRK5 Tm: 40.3 °C
GRK5 [4]; [7]
  GRK5 ΔTm: 13.6 °C
PKA
  IC50: > 501 µM

## Nc1ncnc2occ(-c3ccc(NC(=O)Nc4cc(C(F)(F)F)ccc4F)cc3)c12 [GW770249X]
Bovine GRK5; [6]
  ΔTm at 10 µM: 3.19 °C

## Clc1ccc(CNc2nccc(-c3cnn4ncccc34)n2)cc1 [GW781673X]
Bovine GRK5; read-out: ΔTm, primary screen, GRK5, 10 μM compound, 2 μM kinase, relative to DMSO control
  ΔTm at 10 µM: 2.27 °C

## Nc1nc(-c2ccc(F)cc2)c(-c2ccc3ncccc3n2)s1 [GW785804X]
Bovine GRK5; [6]
  ΔTm at 10 µM: 3.16 °C

## Nc1ncnc2occ(-c3ccc(NC(=O)Nc4cccc(C(F)(F)F)c4)cc3)c12 [GW795493X]
Bovine GRK5; [6]
  ΔTm at 10 µM: 4.96 °C

## Cc1ccc(NC(=O)CC2CC2)cc1-c1ccc(C(=O)NCC2CC2)cc1 [GW796920X]
Bovine GRK5; [6]
  ΔTm at 10 µM: 3.82 °C

## Nc1nccc(C#Cc2cncnc2Nc2ccc(OCc3cccc(F)c3)c(Cl)c2)n1 [GW799251X]
Bovine GRK5; [6]
  ΔTm at 10 µM: 4.33 °C

## NS(=O)(=O)c1ccc(Nc2cc(-c3cccc(O)c3)n[nH]2)cc1 [GW831090X]
Bovine GRK5; [6]
  ΔTm at 10 µM: 2.96 °C

## NC(=O)c1sc(-n2cnc3ccc(C(F)(F)F)cc32)cc1OCc1ccccc1Br [GW853606X]
Bovine GRK5; [6]
  ΔTm at 10 µM: 4.43 °C

## O=c1c(-c2ccc(O)cc2)coc2cc(O)cc(O)c12 [Genistein, 4',5,7-Trihydroxyisoflavone]
Bovine GRK5; [6]
  ΔTm at 10 µM: 2.46 °C

## Cc1cncc2cccc(S(=O)(=O)N3CCCNC[C@@H]3C)c12 [H-1152, (S)-(+)-2-Methyl-1-[(4-methyl-5-isoquinolinyl)sulfonyl]homopiperazine]
Bovine GRK5; [5]
  ΔTm, primary screen, GRK5: 5.95 °C

## NC(=O)Nc1sc(-c2ccccc2)cc1C(N)=O [IKK-2 Inhibitor VI]
Bovine GRK5; [5]
  ΔTm, primary screen, GRK5: 2.57 °C

## CC(C)(C)c1nc2c3ccc(F)cc3c3c(=O)[nH]ccc3c2[nH]1 [JAK Inhibitor I, 2-(1,1-Dimethylethyl)-9-fluoro-3,6-dihydro-7H-benz[h]-imidaz[4,5-f]isoquinolin-7-one]
Bovine GRK5; [5]
  ΔTm, primary screen, GRK5: 8.13 °C

## O=C1c2ccccc2-c2n[nH]c3cccc1c23 [JNK Inhibitor II, Anthra[1,9-cd]pyrazol-6(2H)-one]
Bovine GRK5; [5]
  ΔTm, primary screen, GRK5: 2.19 °C

## COC(=O)[C@@]1(O)C[C@H]2O[C@]1(C)n1c3ccccc3c3c4c(c5c6ccccc6n2c5c31)C(=O)NC4 [K252a]
Bovine GRK5; [5]
  ΔTm, primary screen, GRK5: 9.89 °C

## CS(=O)(=O)c1cccc(CNc2nc(Nc3ccc4c(c3)CCC(=O)N4)ncc2C(F)(F)F)c1 [PF 573228]
Bovine GRK5; [5]
  ΔTm, primary screen, GRK5: 2.67 °C

## O=C1NC(=O)C(c2cn(CCCn3ccnc3)c3ccccc23)=C1Nc1ccccc1 [PKC beta inhibitor]
Bovine GRK5; [5]
  ΔTm, primary screen, GRK5: 3.13 °C

## CC(C)[C@H](CO)Nc1nc(Nc2cccc(Cl)c2)c2ncn(C(C)C)c2n1 [Purvalanol A, 2-(1R-Isopropyl-2-hydroxyethylamino)-6-(3-chloroanilino)-9-isopropyl-purine]
Bovine GRK5; [6]
  ΔTm at 10 µM: 6.44 °C

## O=c1c(O)c(-c2ccc(O)c(O)c2)oc2cc(O)cc(O)c12 [Quercetin, 3,3',4',5,7-Pentahydroxyflavone]
Bovine GRK5; [6]
  ΔTm at 10 µM: 10.6 °C

## O=C1NC(=NCc2cccs2)S/C1=C\c1ccc2ncccc2c1 [RO-3306]
Bovine GRK5; [5]
  ΔTm, primary screen, GRK5: 5.48 °C

## Cn1cc(C2=C(c3ccc(Cl)cc3Cl)C(=O)NC2=O)c2ccccc21 [SB216763]
Bovine GRK5; [6]
  ΔTm at 10 µM: 2.78 °C

## Nc1nonc1-c1nc2cnccc2n1C1CC1 [SB-736302]
Bovine GRK5; [6]
  ΔTm at 10 µM: 2.86 °C

## O=C(Nc1n[nH]c2nc(-c3ccco3)c(Br)cc12)C1CC1 [SB-739452]
Bovine GRK5; [6]
  ΔTm at 10 µM: 2.03 °C

## O=C(O)c1ccc2c3c1cccc3c(=O)n1c3ccccc3nc21 [STO-609]
Bovine GRK5; [6]
  ΔTm at 10 µM: 3.24 °C

## COc1ccc2c(c1)/C(=C/c1cnc[nH]1)C(=O)N2 [SU9516, 3-[1-(3H-Imidazol-4-yl)-meth-(Z)-ylidene]-5-methoxy-1,3-dihydro-indol-2-one]
Bovine GRK5; [6]
  ΔTm at 10 µM: 3.59 °C

## CN[C@@H]1C[C@H]2O[C@@](C)([C@@H]1OC)n1c3ccccc3c3c4c(c5c6ccccc6n2c5c31)C(=O)NC4 [Staurosporine]
Human GRK2S670A; [5]
  ΔTm, primary screen, GRK2: 5.4 °C
Human GRK2S670A; read-out: ΔTm, primary screen, GRK2, 10 μM compound, 2 μM kinase, relative to DMSO control
  ΔTm at 10 µM: 5.37 °C
Bovine GRK5; [5]
  ΔTm, primary screen, GRK5: 12 °C
Bovine GRK5; [6]
  ΔTm at 10 µM: 11.9 °C

## Cl.Cl.NCCNc1ncc(C(N)=O)c(Nc2cccc(C(F)(F)F)c2)n1 [Syk Inhibitor II]
Bovine GRK5; [5]
  ΔTm, primary screen, GRK5: 2.43 °C

## Cn1cc(/C=C2\C(=O)Nc3ccc(S(N)(=O)=O)cc32)c2ccccc21 [Syk Inhibitor]
Bovine GRK5; [5]
  ΔTm, primary screen, GRK5: 3.6 °C

## Cc1cc(C=C2C(=O)C=CC2=O)cc(C)c1O [TX-1918, 2-((3,5-dimethyl-4-hydroxyphenyl)-methylene)-4-cyclopentene-1,3-dione]
Bovine GRK5; [5]
  ΔTm, primary screen, GRK5: 2.21 °C

## O [Water]
Bovine GRK5; [5]
  ΔTm, primary screen, GRK5: 2.01 °C

## Cdk1/2 Inhibitor III
Bovine GRK5; [5]
  ΔTm, primary screen, GRK5: 3.6 °C

## IGF-1R Inhibitor II
Bovine GRK5; [5]
  ΔTm, primary screen, GRK5: 2.42 °C

## Wee1/Chk1 inhibitor
Bovine GRK5; [5]
  ΔTm, primary screen, GRK5: 4.89 °C
